Measured values as given in patent US20200061026A1, “METHODS AND COMPOSITIONS FOR PREVENTING VECTOR-BORNE DISEASE TRANSMISSION” (The Scripps Research Institute, priority 2016, published 2020).
pIC50: −log10 of the molar value. Read-outs that look alike come from different tables or passages of the source.

How the values were obtained:
Anopheles = Anopheles membrane feeding assay, EC90 at day 7; type: in vivo; conditions: 168 h
Description: Isoxazoline compounds fluralaner or afoxolaner were reconstituted in 50% human serum and 50% red blood cells and administered to adult Anopheles stephensi mosquitos via standard membrane feeding. […] FIG. 2A represents a plot of viable Anopheles stephensi versus fluralaner concentration at each day of assessment. FIG. 2B represents a plot of viable Anopheles stephensi versus afoxolaner concentration at each day of assessment. […] The IC50 values of each compound for Anopheles death were determined by logistic regression using a least squares method to find the best fit and are shown in Table 1. IC50 values were calculated by applying a four-parameter logistic regression model using a least-squares method to find the best fit using the Graphpad Prism 5.0 software package.

CYP 1A2 = biological target: T1, CYP 1A2 (Homo sapiens, UniProt P05177); assay: Reversible CYP inhibition in human liver microsomes, CYP 1A2; type: in vitro ADME
T1 construct: individual CYPs in a pool of human liver microsomes; from tissue; host or cells: pooled human liver microsomes
T1 sequence (P05177 1-516): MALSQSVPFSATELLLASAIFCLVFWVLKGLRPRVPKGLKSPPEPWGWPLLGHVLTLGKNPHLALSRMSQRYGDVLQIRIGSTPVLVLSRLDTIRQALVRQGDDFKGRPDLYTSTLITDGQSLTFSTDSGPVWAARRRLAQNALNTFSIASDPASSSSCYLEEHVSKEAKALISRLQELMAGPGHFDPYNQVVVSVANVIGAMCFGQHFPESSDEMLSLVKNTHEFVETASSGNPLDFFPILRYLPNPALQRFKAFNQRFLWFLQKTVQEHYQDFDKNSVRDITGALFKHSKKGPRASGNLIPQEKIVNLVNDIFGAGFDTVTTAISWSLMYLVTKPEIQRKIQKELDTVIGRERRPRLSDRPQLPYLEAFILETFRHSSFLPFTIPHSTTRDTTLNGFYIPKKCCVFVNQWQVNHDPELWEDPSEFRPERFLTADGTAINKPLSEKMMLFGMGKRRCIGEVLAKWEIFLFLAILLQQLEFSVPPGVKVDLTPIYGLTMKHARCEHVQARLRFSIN
Experimental: (§1) Reversible inhibition of cytochrome P450s (CYPs) in human liver microsomes was tested using prototypical, isoform-selective activity assays for individual CYPs in a pool of human liver microsomes (i.e., testosterone for CYP 3A4, phenacetin for CYP 1A2, bufuralol for CYP 2D6, S-mephenytoin for CYP 2C19, and diclofenac for CYP 2C9). The assay provides 8-point IC50 determinations in the range of 0.010 to 50 μM drug concentrations for major isoforms of CYP450.

CYP 2C19 = biological target: T2, CYP 2C19 (Homo sapiens, UniProt P33261); assay: Reversible CYP inhibition in human liver microsomes, CYP 2C19; type: in vitro ADME; conditions: S-mephenytoin, read-out: Cyp microsome IC50, 2C19
T2 construct: individual CYPs in a pool of human liver microsomes; from tissue; host or cells: pooled human liver microsomes
Experimental: as §1

[1] = Hepatocyte stability assay, dog; type: in vitro ADME; conditions: Beagle, hepatocytes
Experimental: Example 7. In Vitro Metabolic Stability of Isoxazoline Compounds in cd-1 Mouse, sd Rat, Beagle Dog, Cynomolgus Monkey and Human Cryopreserved Hepatocytes
Isoxazoline compounds (at 1 μM) were incubated with cryopreserved hepatocytes (0.5×10^6 cells per mL) in duplicates (n=2) at 37° C. using 96-well plate format.
Time points were 0, 15, 30, 60 and 90 minutes in separate plates and medium control samples without cells at 0 and 90 minutes were also incubated. At each time point the reaction was stopped by adding organic solution containing internal standard (IS).
Positive controls 7-ethoxycoumarin and 7-hydroxycoumarin were included in parallel.
The samples were analyzed by LC-MS/MS. Disappearance of the test compound was assessed based on peak area ratios of analyte/IS (no standard curve).
Intrinsic clearance and t½ values were then calculated.

[2] = Plasma protein binding (equilibrium dialysis), rat; type: in vitro ADME; conditions: 2 μM
Experimental: (§2) Frozen plasma (EDTA-K2 as anticoagulant) pooled from multiple individuals of various species was used as a test matrix. The plasma was purchased from commercial vendors or prepared in house from animals. Warfarin was used as a positive control.
(§3) Isoxazoline compounds were spiked into the blank matrix at the final concentration of 2 μM.
(§4) A 150 μL aliquot of matrix sample was added to one side of the chamber in a 96-well equilibrium dialyzer plate (HTD dialysis) and an equal volume of dialysis buffer was added to the other side of the chamber. An aliquot of matrix sample was harvested before the incubation and used as T0 samples for recovery calculation. Triplicate incubations were performed.
(§5) The dialyzer plate was placed in a humidified incubator and rotated slowly for 4 hours at 37° C. After incubation, samples were taken from the matrix side as well as the buffer side. The plasma sample was matched with equal volume of blank buffer; and buffer samples were matched with equal volume of blank plasma. The matrix-matched samples were quenched with a stop solution containing internal standard.
(§6) The samples were analyzed by LC-MS/MS.
(§7) Then, % bound fraction at 4 hours (% bound=1−% unbound) and % recovery in incubates at 4 hours were calculated.
(§8) The stability of compounds in mouse (ms), rat (r), dog (d), cynomolgus monkey (cy), and human (hu) plasma is shown in Table 10 by the percentages of compounds remaining at two hours.

[3] = Plasma protein binding (equilibrium dialysis), dog; type: in vitro ADME; conditions: 2 μM
Experimental: as §2, §3, §4, §5, §6, §7, §8

[4] = Plasma protein binding (equilibrium dialysis), human; type: in vitro ADME; conditions: 2 μM
Experimental: as §2, §3, §4, §5, §6, §7, §8

[5] = Bidirectional permeability in Caco-2 cells; type: in vitro ADME, human; conditions: for Papp B→A at 2 h, 2 μM / Papp A→B at 2 h, 2 μM: human, Caco-2, pH 7.4
Experimental: The suitability of the compound for oral dosing was evaluated via a Caco-2 permeability assay to predict human intestinal permeability and to investigate drug efflux. Afoxolaner racemate was evaluated for P-glycoprotein (PGP) inhibition in a MDCK permeability assay.
Caco-2 Cells (obtained from ATCC) were seeded onto PET membranes of 96-well Insert Plates for 21-28 days for confluent cell monolayer formation. The integrity of the monolayer was verified by performing Lucifer yellow rejection assay. The quality of the monolayer was also verified by measuring the unidirectional (A→B) permeability of fenoterol/nadolol (low permeability marker), propranolol/metoprolol (high permeability marker) and Bi-directional permeability of Digoxin (a P-glycoprotein substrate marker) in duplicate wells.
Standard assay conditions are as follows: each test compound was tested at 2 μM (DMSO≤1%) with two replicates; bi-directional transport was evaluated (A→B and B→A); incubation was for 2 hours with a single time point; the transport buffer contained HBSS with 10 mM HEPES at pH7.40±0.05; and incubation occurred at 37±1° C., 5% CO2 and relatively saturated humidity. The dosing solution was spiked and mixed with transport buffer and Stop Solution (containing an appropriate internal standard (IS)) to provide the T0 sample. At the end of incubation, sample solutions from both donor and receiver wells were immediately mixed with Stop Solution. All samples, including T0 samples, donor samples, and receiver samples, were analyzed using LC/MS/MS. Concentrations of test compound are expressed as peak area ratio of analytes versus IS without a standard curve.

[6] = dog (d), 1 μM, read-out: Hepatocyte stability (t½)
[7] = B→A, 2 μM, 2 hours, read-out: Caco2 B-A

T2 sequence (P33261 whole entry): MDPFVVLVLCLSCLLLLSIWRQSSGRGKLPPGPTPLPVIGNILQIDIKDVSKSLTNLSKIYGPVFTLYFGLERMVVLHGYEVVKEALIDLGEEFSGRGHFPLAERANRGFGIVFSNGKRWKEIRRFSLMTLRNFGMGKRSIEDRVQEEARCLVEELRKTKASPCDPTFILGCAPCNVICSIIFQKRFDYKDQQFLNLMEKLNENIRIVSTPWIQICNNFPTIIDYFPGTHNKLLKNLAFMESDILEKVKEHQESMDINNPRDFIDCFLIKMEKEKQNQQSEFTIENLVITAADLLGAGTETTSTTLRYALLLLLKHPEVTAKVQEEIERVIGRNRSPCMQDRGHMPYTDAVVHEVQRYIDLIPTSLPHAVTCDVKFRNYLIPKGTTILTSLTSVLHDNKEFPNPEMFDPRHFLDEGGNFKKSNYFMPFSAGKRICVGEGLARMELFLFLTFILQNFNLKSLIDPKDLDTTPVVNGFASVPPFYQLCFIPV

Structure (SMILES) | EC90 (Anopheles) [nM] | pIC50 (CYP 1A2) | pIC50 (CYP 2C19) | half-life at 1 μM [1, 6] [min] | Plasma protein % binding ([2]; rat (r), 4 hours) | Plasma protein % binding ([3]; dog (d), 4 hours) | Plasma protein % binding ([4]; human (hu), 4 hours) | Caco2 A-B ([5]; A→B, 2 μM, 2 hours) | Papp B→A at 2 h, 2 μM [5, 7] [×10⁻⁶ cm/s] | EC90 (Anopheles; day 7, read-out: EC90) [nM] | pIC50 (CYP 1A2; human liver microsomes, phenacetin, read-out: Cyp microsome IC50, 1A2) | half-life at 1 μM ([1]; dog) [min] | Plasma protein % binding ([2]; rat, 4 h) | Plasma protein % binding ([3]; dog, 4 h) | Plasma protein % binding ([4]; human, 4 h) | Papp A→B at 2 h, 2 μM [5] [×10⁻⁶ cm/s] | Papp B→A at 2 h, 2 μM [5] [×10⁻⁶ cm/s] | Papp A→B at 2 h, 2 μM ([5]; A→B, 2 μM, 2 hours, read-out: Caco2 A-B) [×10⁻⁶ cm/s]
O=C(CNC(=O)c1ccc(C2=NO[C@](c3cc(Cl)cc(C(F)(F)F)c3)(C(F)(F)F)C2)c2ccccc12)NCC(F)(F)F (racemic) [Afoxolaner, afoxolaner] | 8.1 | < 4.30 | 5.51 | > 217 | 97.3 (r), % | >99.9 (d, hu) % | >99.9 (d, hu) % | <0.0003/ 10^−6 cm/sec | 0.24 | – | – | – | – | – | – | – | – | –
O=C(CNC(=O)c1ccc(C2=NO[C@@](c3cc(Cl)cc(Cl)c3)(C(F)(F)F)C2)c2ccccc12)NCC(F)(F)F [(S)-4-(5-(3,5-dichlorophenyl)-5-(trifluoromethyl)-4,5-dihydroisoxazol-3-yl)-N-(2-oxo-2-((2,2,2-trifluoroethyl)amino)ethyl)-1-naphthamide] | – | – | 6.22 | – | – | – | – | – | – | 8 | < 4.30 | 41 | >99.9% (ms, r, d, hu) | >99.9% (ms, r, d, hu) | >99.9% (ms, r, d, hu) | < 0.29 | 0.56 | –
O=C(CNC(=O)c1ccc(C2=NO[C@@](c3cc(Cl)cc(C(F)(F)F)c3)(C(F)(F)F)C2)c2ccccc12)NCC(F)(F)F [(S)-afoxolaner] | 8 | < 4.30 | 5.96 | 32 | >99.9 (ms, r, hu), % | 99.5 (d) % | >99.9 (ms, r, hu), % | – | 0.7 | – | – | – | – | – | – | – | – | < 0.2
